The source made the active and inactive calls. The calls are words filed in the database; no cut-off is given here.
Tests used:
[1] = Increase in GSH level in rat N27 cells at 0.5 uM after 24 hrs; format: functional
[2] = Neuroprotective effect in rat N27 cells assessed as Inhibition of BSO-induced GSH depletion at 0.5 uM after 24 hrs by DTNB recycling method relative to control; format: functional; conditions: N27, 24 h
[3] = Neuroprotective effect against rat N27 cells assessed as reduction of BSO-induced increase in MDA level at 0.5 uM after 24 hrs by thiobarbituric acid reaction method relative to control; format: functional; parameters: scale not given: the % may be the effect or the level left
[4] = Neuroprotective effect against rat N27 cells assessed as reduction of BSO-induced increase in MDA level at 0.5 uM by thiobarbituric acid reaction method after 24 hrs BSO withdrawal relative to control; format: functional; parameters: scale not given: the % may be the effect or the level left
N27 [5] = test: Neuroprotective effect against rat N27 cells assessed as reduction of BSO-induced reduction of GST activity at 0.5 uM relative to control; format: functional, cell-based
[6] = Neuroprotective effect against rat N27 cells assessed as reduction of BSO-induced increase in hydrogen peroxide level at 0.5 uM after 24 hrs using FOX1 reagent; format: functional; parameters: scale not given: the % may be the effect or the level left
[7] = Neuroprotective effect against rat N27 cells assessed as reduction of BSO-induced increase in reactive oxygen species level at 0.5 uM after 24 hrs by DCFDA fluorescence assay relative to control; format: functional; parameters: scale not given: the % may be the effect or the level left
[8] = Neuroprotective effect against rat N27 cells assessed as reduction of BSO-induced increase in reactive oxygen species level at 0.5 uM treated 24 hrs after BSO withdrawal by DCFDA fluorescence assay relative to control; format: functional; parameters: scale not given: the % may be the effect or the level left
N27 [9] = test: Increase in ROS level in rat N27 cells at 0.5 uM by DCFDA fluorescence assay; format: functional, cell-based
N27 [10] = test: Neuroprotective effect against rat N27 cells assessed as reduction of BSO-induced reduction of GST activity at 0.5 uM treated 24 hrs after BSO withdrawal relative to control; format: functional, cell-based
[11] = Neuroprotective effect against rat N27 cells assessed as reduction of BSO-induced increase in hydrogen peroxide level at 0.5 uM treated 24 hrs after BSO withdrawal using FOX1 reagent relative to control; format: functional; parameters: scale not given: the % may be the effect or the level left

SMILES	Activity [1] [%]	inhibition at 0.5 µM [2] [%]	Activity [3] [%]	Activity [4] [%]	Activity (N27 [5])	Activity [6] [%]	Activity [7] [%]	Activity [8] [%]	Activity (N27 [9])	Activity (N27 [10])	Activity [11] [%]
COc1cc(/C=C/C(=O)CC(=O)/C=C/c2ccc(O)c(OC)c2)ccc1O [CURCUMIN]	30	78	40	65	Active	50	45	50	inactive	Active	–
COc1cc(/C=C/C(=O)CC(=O)/C=C/c2ccc(OC(=O)[C@@H](N)CCC(=O)O)c(OC)c2)ccc1OC(=O)[C@@H](N)CCC(=O)O	64	83	50	90	Active	50	90	80	inactive	Active	–
COc1cc(/C=C/C(=O)CC(=O)/C=C/c2ccc(OC(=O)[C@@H](N)C(C)C)c(OC)c2)ccc1OC(=O)[C@@H](N)C(C)C	50	72	30	80	Active	–	60	70	inactive	Active	80
COc1cc(/C=C/C(=O)CC(=O)/C=C/c2ccc(OC(=O)/C=C/C=C/c3ccc(O)c(O)c3)c(OC)c2)ccc1OC(=O)/C=C/C=C/c1ccc(O)c(O)c1	25	78	50	75	Active	50	65	55	inactive	Active	–

From ChEMBL document CHEMBL1156964, “Bioconjugates of curcumin display improved protection against glutathione depletion mediated oxidative stress in a dopaminergic neuronal cell line: Implications for Parkinson's disease” (2010)
